Results on one compound are retold here after patent US10420737B2, “Hepatotoxicity-free pharmaceutical composition containing acetaminophen drugs” (NATIONAL DEFENSE EDUCATION AND RESEARCH FOUNDATION, priority 2013, dated 2019).

The test system of series [1] is Male SD (Sprague-Dawley) rats. Nature of the series: APAP-induced hepatotoxicity in rats: galactose single point (GSP) residual liver function test. Format: in vivo, rat. Conditions: excipient 1.67 mg/kg + APAP 1000 mg/kg, single oral dose. The procedure:
After the study was completed, all rats were subjected to GSP test. Rats were i.v. injected with 0.4 g/ml BW galactose solution 0.5 g/kg within 30 seconds and one blood sample was collected at 5, 10, 15, 30, 45 and 60 minutes post injection from the tail vein. Colorimetric galactose dehydrogenase is used to quantify the concentration of galactose and the test concentration ranges from 50 to 1,000 μg/ml. The within-day variation of each concentration is calculated using standard deviation and coefficient of variation (CV) and the maximum allowable coefficient of variation is 10% CV, whereas day-to-day variation is examined by comparing the slope and intercept of calibration curves. The GSP is the blood galactose concentration obtained 60 seconds after stopping the 30-second injection.

In series [2] the target is Cytochrome P450 2E1 (CYP2E1) (Rattus norvegicus, UniProt P05182). Nature of the series: In-vitro screening of CYP2E1 inhibitors in rat liver microsomes (chlorzoxazone 6-hydroxylation). Particulars: rat liver microsomes. An excerpt:
(§1) This example is preparation of microsomes from rat and human liver for in vitro screening of CYP2E1 inhibitors. A total of 55 safe and edible excipients are included in the screening for cytochrome P450 2E1 (CYP2E1) inhibitors. […] After addition of the test sample, the amount of CYP2E1 metabolite standard 6-OH—CZX (6-Hydroxy-Chlorzoxazone) is used for calculation of the CYP 2E1 inhibition ratio of the test sample by using the amount of 6-OH—CZX of the control group as the baseline.
(§2) Transfer to and pre-incubate the reaction mixture in a water bath at 37° C. for 1 minute. […] Incubate the sample for 1 minute and add internal standard (5 ug/mL 4-hydroxy-tobutamide).
For orientation: Liver microsomes are a subcellular fraction often used to study metabolism.

Series [3] concerns the target Cytochrome P450 2E1 (CYP2E1) (Homo sapiens, UniProt P05181). The experiment in a line: In-vitro screening of CYP2E1 inhibitors in human liver microsomes (chlorzoxazone 6-hydroxylation). Particulars: human liver microsomes.
Description: as §1, §2

Series [4] has as its system Male SD (Sprague-Dawley) rats. The experiment in a line: APAP-induced hepatotoxicity in rats: histological liver tissue sections (Total HAI-score). Particulars: single oral dose.
Series [5] has as its system Male SD (Sprague-Dawley) rats. Nature of the series: APAP-induced hepatotoxicity in rats: plasma AST and ALT activity. Format: in vivo, rat. The procedure:
After completion of the treatments, rats were sacrificed under ether anesthesia, and blood was collected from the tail artery of the rats and placed in a test tube containing EDTA. The plasma was centrifuged at 13,000 at 4° C. for 15 minutes and the isolated plasma was transferred to Eppendorf tubes in aliquots and stored at −80° C.
Liver damage is quantified by measuring plasma AST and ALT activity. AST and ALT are common indicators of hepatotoxicity and are measured by using the Synchron LXi 725 system (Beckman Instruments, U.S.).

Setting [6] is: excipient 1.67 mg/kg + APAP 1000 mg/kg, single oral dose.

Structures are written as SMILES. “Also recorded” adds a separate entry of the source.

Cytochrome P450 2E1 (CYP2E1) (Rattus norvegicus, UniProt P05182), sequence (P05182 whole entry): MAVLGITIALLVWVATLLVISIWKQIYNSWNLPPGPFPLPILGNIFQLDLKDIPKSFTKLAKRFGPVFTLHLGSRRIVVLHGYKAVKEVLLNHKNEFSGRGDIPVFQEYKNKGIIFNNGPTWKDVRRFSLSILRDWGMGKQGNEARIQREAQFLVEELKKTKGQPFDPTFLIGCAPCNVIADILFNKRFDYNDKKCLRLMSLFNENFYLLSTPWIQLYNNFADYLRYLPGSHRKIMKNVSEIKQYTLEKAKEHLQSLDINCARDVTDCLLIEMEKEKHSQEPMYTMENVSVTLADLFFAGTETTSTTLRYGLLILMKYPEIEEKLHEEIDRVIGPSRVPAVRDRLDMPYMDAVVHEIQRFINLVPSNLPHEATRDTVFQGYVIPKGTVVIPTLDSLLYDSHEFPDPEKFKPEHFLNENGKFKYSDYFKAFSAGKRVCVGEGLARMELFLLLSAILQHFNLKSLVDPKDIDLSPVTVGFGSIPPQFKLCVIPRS
Cytochrome P450 2E1 (CYP2E1) (Homo sapiens, UniProt P05181), sequence (P05181 whole entry): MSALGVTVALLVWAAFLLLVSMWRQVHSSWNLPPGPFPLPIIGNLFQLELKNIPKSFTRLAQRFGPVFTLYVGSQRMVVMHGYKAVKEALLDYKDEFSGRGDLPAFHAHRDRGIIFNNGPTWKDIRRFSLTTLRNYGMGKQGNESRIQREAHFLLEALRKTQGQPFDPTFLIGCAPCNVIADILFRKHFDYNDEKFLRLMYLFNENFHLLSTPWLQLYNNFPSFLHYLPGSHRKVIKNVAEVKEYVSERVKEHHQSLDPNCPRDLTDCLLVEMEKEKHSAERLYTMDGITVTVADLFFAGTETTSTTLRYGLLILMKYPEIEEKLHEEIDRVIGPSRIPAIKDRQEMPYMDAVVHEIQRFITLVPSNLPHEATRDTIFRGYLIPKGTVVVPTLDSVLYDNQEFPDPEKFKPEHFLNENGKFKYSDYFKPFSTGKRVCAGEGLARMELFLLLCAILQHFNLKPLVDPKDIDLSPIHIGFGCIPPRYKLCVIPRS

As to `CC1CCC(C(C)C)C(O)C1` (stereo not drawn) [Menthol], the GSP in series [1] stood at 289 ± 20 mg/L. The “CYP 2E1 inhibition ratio” value amounted to 7.2 ± 2.9% in series [2] (test concentration 16.5 μM); 15.3 ± 7.9% in series [2] (test concentration 33 μM); 36.4 ± 0.3% in series [2] (test concentration 66 μM); 10.5 ± 0.4% in series [3] (test concentration 16.5 μM); 20.8 ± 2.1% in series [3] (test concentration 33 μM); 30.8 ± 0.3% in series [3] (test concentration 66 μM). Besides, in series [4] (excipient 1.67 mg/kg + APAP 1000 mg/kg), the “Total HAI-score” value is recorded as 11 ± 1.2. Further, the “liver tissue sections, hepatocyte morphology (in words)” value in series [4] (liver protection groups + APAP 1000 mg/kg, H&E stain 200×, FIG. 2) is “more intact around the central vein and have a apparent nucleus with less vacuolization; also recorded: hepatocytes are relatively intact with visible nucleus and less vacuolization”. Also, the “improvement of APAP liver damage (AST, ALT, GSP and Total HAI-score, in words)” value in series [5] (combined with APAP 1000 mg/kg, versus APAP hepatotoxicity group) is “significant decrease”. For the same compound, the ALT in series [5] (setting [6]) is 109 ± 23 IU/L. Further, in series [5] (setting [6]), the AST was 187 ± 21 IU/L.
